pEC50: −log10 of the molar value. A value given as a limit tells only on which side of the number the result lay.

The experiment deals with T1, human FXR (NR1H4) (Homo sapiens, UniProt Q96RI1).
T1 construct: host or cells: CHO (Chinese hamster ovary) reporter cells
T1 sequence (Q96RI1 1-486): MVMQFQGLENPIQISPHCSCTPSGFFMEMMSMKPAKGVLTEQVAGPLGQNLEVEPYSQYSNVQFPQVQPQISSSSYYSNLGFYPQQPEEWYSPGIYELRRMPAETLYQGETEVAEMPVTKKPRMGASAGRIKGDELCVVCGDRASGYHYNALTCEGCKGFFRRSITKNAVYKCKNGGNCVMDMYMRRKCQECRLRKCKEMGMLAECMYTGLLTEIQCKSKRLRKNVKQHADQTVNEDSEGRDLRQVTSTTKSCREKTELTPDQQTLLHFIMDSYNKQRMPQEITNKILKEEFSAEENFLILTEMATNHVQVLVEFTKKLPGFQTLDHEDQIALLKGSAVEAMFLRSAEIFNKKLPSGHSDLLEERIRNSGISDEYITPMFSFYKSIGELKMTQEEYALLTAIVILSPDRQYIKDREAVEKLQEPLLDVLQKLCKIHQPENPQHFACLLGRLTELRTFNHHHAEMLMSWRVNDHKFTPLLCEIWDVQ
Put plainly: Human FXR (NR1H4) Assay: Gal4 promoter driven luciferase reporter transactivation in CHO cells (Indigo Bioscience kit IB00601). As to Efficacy (%): efficacy normalized to CDCA set as 100%. The following applies: for Emax: CHO, read-out: Efficacy (%); for pEC50: Human FXR (NR1H4) reporter assay, potency ranges. The class given is cell-based. The essentials:
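Luminescence read-out after 22 h exposure quantified FXR transactivation; compounds were tested at several doses, 0.2% DMSO, in CHO cells engineered with human NR1H4 and a luciferase gene linked to an FXR-responsive promoter.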
A general note: A reporter such as luciferase makes a cellular process visible.

In general, pEC50 refers to the EC50 on a negative log10 scale, so that one unit is a factor of ten. With `COc1cc(C(=O)O)cc2sc(N3C4CCC3CC(NCc3c(-c5c(Cl)cccc5Cl)noc3C3CC3)C4)nc12` (centres unmarked) [Example 6], the Emax came out at 153% and the negative-log EC50 (pEC50) was > 9.00.
On the same counts, the results for `COc1cc(C(=O)NCCS(=O)(=O)O)cc2sc(N3C4CCC3CC(NCc3c(-c5c(Cl)cccc5Cl)noc3C3CC3)C4)nc12` (centres unmarked) [Example 200-12] are 16.5% and 7.00 to 9.00.
As for `CC1(S(=O)(=O)NC(=O)c2cc(F)c3nc(N4C5CCC4CC(NCc4c(-c6c(Cl)cccc6Cl)noc4C4CC4)C5)sc3c2)CC1` (centres unmarked) [Example 295], the Emax is 152% and the pEC50 was 7.00 to 9.00.
The corresponding values for `COC(=O)c1ccc2nc(N3C4CCC3CC(NCc3c(-c5c(Cl)cccc5Cl)noc3C3CC3)C4)c(OC)nc2c1` (centres unmarked) [Example 197] are 115% and 6.00 to 7.00.
The corresponding values for `O=C(O)c1ccc2nc(N3CCC(NCc4c(-c5c(Cl)cccc5Cl)noc4C4CC4)CC3)sc2c1` [Example 174] are 132% and 7.00 to 9.00.
With `COC(=O)c1cc(OC(F)F)c2nc(N3C4CCC3CC(NCc3c(-c5c(Cl)cccc5Cl)noc3C3CC3)C4)sc2c1` (centres unmarked) [Example 189], the Emax turned out to be 73% and the pEC50 is 7.00 to 9.00.
The corresponding values for `COC(=O)c1ccc2nc(N3C4CCC3CC(NCc3c(-c5c(Cl)cccc5Cl)noc3C3CC3)C4)sc2c1-c1ccccc1` (centres unmarked) [Example 200-25] are 58.5% and 7.00 to 9.00.
The corresponding values for `O=C(O)c1cc2sc(N3C4CCC3CC(NCc3c(-c5c(Cl)cccc5Cl)noc3C3CC3)C4)nc2cc1-c1ccccc1` (centres unmarked) [Example 200-24] are 96.2% and 7.00 to 9.00.
On the same counts, the results for `O=C(NCCS(=O)(=O)O)c1cc(F)c2nc(N3C4CCC3CC(NCc3c(-c5c(Cl)cccc5Cl)noc3C3CC3)C4)sc2c1` (centres unmarked) [Example 200-1] are 10% and 7.00 to 9.00.
On to `CC1(S(=O)(=O)NC(=O)c2cc3sc(N4C5CCC4CC(NCc4c(-c6c(Cl)cccc6Cl)noc4C4CC4)C5)nc3cc2-c2ccccc2)CC1` (centres unmarked) [Example 400-32], for which the Emax worked out at 116% and the pEC50 was > 9.00.
With `CC(C)Oc1cc(C(=O)O)cc2sc(N3C4CCC3CC(NCc3c(-c5c(Cl)cccc5Cl)noc3C3CC3)C4)nc12` (centres unmarked) [Example 200-14], the Emax is 93.5% and the pEC50 is > 9.00.
Turning to `O=C(O)c1ccc2nc(N3C4CCC3CC(NCc3c(-c5ccccc5OC(F)(F)F)noc3C3CC3)C4)ccc2c1` (centres unmarked) [Example 514], the Emax was 100% and the pEC50 is 7.00 to 9.00.
On the same counts, the results for `CCOC(=O)c1ccc2nc(N3[C@@H]4CC[C@H]3C[C@@H](N(C)Cc3c(-c5c(Cl)cccc5Cl)noc3C3CC3)C4)sc2c1` [Example 165, ethyl 2-((1R,3R,5S)-3-(((5-cyclopropyl-3-(2,6-dichlorophenyl)isoxazol-4-yl)methyl)(methyl)amino)-8-azabicyclo[3.2.1]octan-8-yl)benzo[d]thiazole-6-carboxylate] are 236% and 7.00 to 9.00.
On the same counts, the results for `O=C(NS(=O)(=O)C1CC1)c1ccc2nc(N3C4CCC3CC(NCc3c(-c5ccccc5C(F)(F)F)noc3C3CC3)C4)oc2c1` (centres unmarked) [Example 1424] are 148% and 7.00 to 9.00.
On the same counts, the results for `CC1(S(=O)(=O)NC(=O)c2cc3sc(N4C5CCC4CC(NCc4c(-c6c(Cl)cccc6Cl)noc4C4CC4)C5)nc3c3ccccc23)CC1` (centres unmarked) [Example 400-33] are 91% and > 9.00.
On to `COc1nc2cc(C(=O)O)ccc2nc1N1C2CCC1CC(NCc1c(-c3c(Cl)cccc3Cl)noc1C1CC1)C2` (centres unmarked) [Example 198], for which the Emax is 140% and the pEC50 was 7.00 to 9.00.
On the same counts, the results for `O=C(O)c1cccc(N2CCN(Cc3c(-c4c(Cl)cccc4Cl)noc3C3CC3)CC2)c1` [Example 188] are 15% and < 6.00.
The corresponding values for `CC1(S(=O)(=O)NC(=O)c2ccc3nc(N4C5CCC4CC(N(C=O)Cc4c(-c6c(Cl)cccc6Cl)noc4C4CC4)C5)sc3c2)CC1` (centres unmarked) [Example 294] are 130% and < 6.00.
With `CC(C)Oc1cc(C(=O)NS(=O)(=O)C2(C)CC2)cc2sc(N3C4CCC3CC(NCc3c(-c5c(F)cccc5F)noc3C3CC3)C4)nc12` (centres unmarked) [Example 1428], the Emax worked out at 86% and the pEC50 is 7.00 to 9.00.
On the same counts, the results for `O=C(O)c1ccc2nc(N3C4CCC3CC(NCc3c(-c5ccccc5OC(F)(F)F)noc3C3CC3)C4)sc2c1` (centres unmarked) [Example 402] are 112% and 7.00 to 9.00.
Turning to `CC1(S(=O)(=O)NC(=O)c2ccc3nc(N4C5CCC4CC(NCc4c(-c6ccccc6C(F)(F)F)noc4C4CC4)C5)oc3c2)CC1` (centres unmarked) [Example 1425], the Emax amounted to 74% and the pEC50 is 6.00 to 7.00.
Take `CC1(S(=O)(=O)NC(=O)c2ccc(N3C4CCC3CC(NCc3c(-c5ccccc5OC(F)(F)F)noc3C3CC3)C4)nc2)CC1` (centres unmarked) [Example 900-14]: the Emax was found to be 46.5% and the pEC50 was 6.00 to 7.00.
On the same counts, the results for `CC1(S(=O)(=O)NC(=O)c2cc(C3CC3)c3nc(N4C5CCC4CC(NCc4c(-c6ccccc6OC(F)(F)F)noc4C4CC4)C5)sc3c2)CC1` (centres unmarked) [Example 900-9] are 122% and > 9.00.
On the same counts, the results for `O=C(NS(=O)(=O)C1CC1)c1cc(C2CC2)c2nc(N3C4CCC3CC(NCc3c(-c5ccccc5C(F)(F)F)noc3C3CC3)C4)sc2c1` (centres unmarked) [Example 1414] are 89.5% and > 9.00.
The corresponding values for `CC1(S(=O)(=O)NC(=O)c2cc(OC(F)F)c3nc(N4C5CCC4CC(NCc4c(-c6c(Cl)cccc6Cl)noc4C4CC4)C5)sc3c2)CC1` [Example 323, 2-((1R,3r,5S)-3-(((5-cyclopropyl-3-(2,6-dichlorophenyl)isoxazol-4-yl)methyl)amino)-8-azabicyclo[3.2.1]octan-8-yl)-4-(difluoromethoxy)-N-((1-methylcyclopropyl)sulfonyl)benzo[d]thiazole-6-carboxamide] are 150% and > 9.00.
For the compound `CCOC(=O)c1ccc2nc(N3C4CCC3CC(NCc3c(-c5ccccc5OC(F)(F)F)noc3C3CC3)C4)sc2c1` (centres unmarked) [Example 696], the Emax came to 59.1% and the pEC50 is 7.00 to 9.00.
On the same counts, the results for `CCOc1cc(C(=O)NS(=O)(=O)C2(C)CC2)cc2sc(N3C4CCC3CC(NCc3c(-c5c(Cl)cccc5Cl)noc3C3CC3)C4)nc12` (centres unmarked) [Example 400-15] are 104% and > 9.00.
As for `O=C(NS(=O)(=O)C1CC1)c1cc(F)c2nc(N3CCC(NCc4c(-c5c(Cl)cccc5Cl)noc4C4CC4)CC3)sc2c1` [Example 400-9], the Emax was 37.5% and the pEC50 is 6.00 to 7.00.
On the same counts, the results for `COC(=O)c1cc2sc(N3C4CCC3CC(NCc3c(-c5c(Cl)cccc5Cl)noc3C3CC3)C4)nc2cc1F` (centres unmarked) [Example 200-15] are 75.8% and 7.00 to 9.00.
The corresponding values for `CC1(S(=O)(=O)NC(=O)c2cc(F)c3nc(N4C5CCC4CC(NCc4c(-c6ccccc6OC(F)(F)F)noc4C4CC4)C5)sc3c2)CC1` (centres unmarked) [Example 900-2] are 109% and 7.00 to 9.00.
For the compound `O=C(O)c1ccc2nc(N3C4CCC3CC(NCc3c(-c5ccccc5C(F)(F)F)noc3C3CC3)C4)oc2c1` (centres unmarked) [Example 1418], the Emax was found to be 102% and the pEC50 was 7.00 to 9.00.

These data come from patent US10450306B2, “Isoxazole analogs as FXR agonists and methods of use thereof” (Enanta Pharmaceuticals, Inc., priority 2016, dated 2019).
